Assay results reported in patent publication US20170298056A1, “SMALL MOLECULE INHIBITORS OF HIV-1 ENTRY AND METHODS OF USE THEREOF” (Dana-Farber Cancer Institute, Inc., priority 2014, published 2017).

Key:
Assay type in all cases: cell-based
[1] = tested on: HIV-1JR-FL; experiment: Washout experiment, HIV-1JR-FL infection; conditions: washing out before infection
Protocol: For washout experiments, different concentrations of 18A were incubated with the recombinant viruses at 37° C. for 20 minutes. The viruses were laid on a 20% sucrose cushion and ultracentrifuged at 30,000 RPM in an SW55 rotor for 1.5 hours at 4° C. After the supernatant was aspirated, viruses were suspended in 500-1000 μl medium and 90 μl of the virus suspension was used to infect 5000 Cf2Th-CD4/CCR5 cells (5 replicates). The cells were incubated for 48 hours and processed as described above. Sensitivity of recombinant viruses to cold inactivation was measured.

[2] = tested on: HIV-1KB9; experiment: Viral infection assay, dual-tropic isolate; conditions: dual-tropic HIV-1KB9
Protocol: Production of recombinant HIV-1 expressing luciferase. 293T cells were cotransfected with an Env expression plasmid, a firefly luciferase-expressing lentiviral vector (pHIVcc2.luc) and an HIV-1-based packaging plasmid (psPAX2, cat #11348, NIH AIDS Research and Reference Reagent Program) at a ratio of 1:6:3 using Effectene (Qiagen, Germantown, Md.). After 48 hours, the supernatant was collected, buffered with 50 mM Hepes pH 7.4 (final concentration) and centrifuged for 5 minutes at 750×g and 4° C. The virus-containing supernatant was used directly or frozen at −80° C.
Viral infection assay. Each test compound was serially diluted in DMSO in a 96-well B&W isoplate (PerkinElmer, Boston, Mass.) using an HP D300 Digital Dispenser, to a final volume of 450 nl. DMSO was used as a control. Viruses pseudotyped with a specific Env were added to each well and incubated briefly at room temperature. […] The activity of the firefly luciferase, which was used as a reporter protein in the system, was measured with a Centro LB 960 luminometer (Berthold Technologies, Oak Ridge, Tenn.). One hundred microliters of assay buffer (15 mM MgSO4, 15 mM KH2PO4/K2HPO4 pH 7.8, 1 mM ATP and 1 mM DTT) was injected to each well, followed by a 50 μl injection of 1 mM Dluciferin potassium salt (BD Pharmingen, San Jose, Calif.); luminescence was measured for 2 sec. […]

[3] = tested on: HIV-1MN27; experiment: Viral infection assay, CXCR4-tropic virus, Cf2Th-CD4/CXCR4 cells; conditions: HIV-1MN27, Cf2Th cells expressing CD4 and CXCR4

## O=C(N/N=C/c1ccc(O)cc1)Nc1cccc2nsnc12 [Compound 18A]
[1]
  reversibility of inhibition of HIV-1 infection: reversible
[2]
  inhibition of infection: relatively resistant to inhibition
[3]
  IC50: ~25 µM
